Laboratory results: PubChem BioAssay AID1963441 (Molecular Pharmacology Branch, DTP, NCI, 2024)

System: NCI-H1876 complex spheroid growth, % test/control
Test: Anticancer human tumor NCI-H1876 cell line growth inhibition [Asc];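 further: compound exposure lasted 7 days starting three days after seeding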;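 on viability, T/C: 100% = DMSO vehicle control wells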
Settings: for IC50: curve of first compound; for viability, T/C: stronger effect = lower value
Description: Multicellular complex tumor spheroid response to apoptosis pathway targeting inhibitors Alrizomadlin, Pelcitoclax, and Dasminapant in combination with a variety of drugs and investigational agents in selected tumor cell lines
The MDM2 inhibitor alrizomadlin, the Bcl-2/Bcl-xL inhibitor pelcitoclax, and the IAPs inhibitor dasminapant were evaluated both individually and in combination with standard of care and investigational anticancer small molecules within a complex spheroid model of solid tumors. . Complex spheroids include a stromal component modeled by human endothelial cells (HUVEC) and fibroblasts modeled by human mesenchymal stem cells (MSCs). The concentration ranges selected for each drug and investigational agent were based upon clinically achievable concentrations if the clinical Cmax of the agent was known.
Compounds. The drugs and investigational agents: alrizomadlin (APG-115; NSC831270), pelcitoclax (APG-1252; NSC835773), dasminapant (APG-1387;NSC834197), TAK-243 (NSC785004), copanlisib (NSC809693), olaparib (NSC753686), talazoparib (NSC767125), cobimetinib (NSC 768068), eltanexor (KPT-8602, NSC 794443), abemaciclib (NSC 768073), sotorasib (NSC818433), adagrasib (NSC 831453), MRTX-1133 (NSC 836407), Iadademestat (ORY1001, NSC 806812), and RMC-4630 (NSC839698), were obtained from the NCI Developmental Therapeutics Program Chemical Repository. The FDA-approved anticancer drug set is available from the Developmental Therapeutics Program at https://dtp.cancer.gov/organization/dscb/obtaining/available plates.htm. […] The stock solutions were prepared in dimethyl sulfoxide (DMSO, Sigma-Aldrich, St. Louis, MO, cat. D2650) at 800-fold the tested concentration and stored at -70 degrees C prior to their use. All drugs and investigational agents were tested over a range starting from a high concentration at or near the clinical Cmax and decreasing in half-log increments. If the clinical Cmax for an agent had not been determined, the highest concentration tested was 10 microM.
The patient-derived cancer (PDC) cell lines include five colon adenocarcinomas: 186277-243-T-J2-PDC, 616215-338-R-J1-PDC, 439559-082-T-J2-PDC, 463943-066-T-J2-PDC, and 519858-162-T-J1-PDC; three pancreatic carcinomas: 323965-272-R-J2-PDC, 521955-158-R6-J3-PDC, and 521955-158-R2-J5-PDC; two uterine sarcomas: 327498-152-R-J2-PDC and 993429-296-R-J1-PDC; two rhabdomyosarcomas: 755483-174-R-J1-PDC and 772245-204-R-J1-PDC; two soft tissue sarcomas: 126254-015-R-J1-PDC and 494315-158-R-J1-PDC; two malignant fibrous histiocytomas: 317291-083-R-J1-PDC and 596521-263-R-J1-PDC; two breast carcinomas: 171881-019-R-J1-PDC and 885512-296-R-J2-PDC; and one ovarian carcinoma: 6556581-035-R-J-PDC were obtained from the NCI PDMR, (https://pdmr.cancer.gov). The established cell lines HSSY-2 synovial sarcoma (RRID:CVCL 8719), SYO-1 synovial sarcoma (RRID:CVCL_7146), MPNST malignant peripheral neural sheath tumor were obtained from the Sloan Kettering Institute. The following established cell lines were purchased from the American Type Culture Collection (ATCC, Manassas, VA), Sor the received from the NCI repository:, PANC-1 pancreatic carcinoma (CRL-1469, RRID:CVCL_0480), OVCAR-5 ovarian carcinoma (RRID:CVCL_1628), OVCAR-8 ovarian carcinoma (RRID:CVCL_1629), , MCF-7 breast carcinoma (CRL-12584, RRID:CVCL_0031), MDA-MB-231 breast carcinoma (CRL-12532, RRID:CVCL_0062), NCI-H1876 small cell lung carcinoma (CRL-5902, RRID:CVCL_1503), NCI-H510A small cell lung carcinoma (HTB-184, RRID:CVCL_1565), NCI-H1417 (CRL-5869, RRID:CVCL_1469), and NCI-H196 small cell lung carcinoma (CRL-5823, RRID:CVCL_1509). Dr. Peter Houghton (Greehey Children's Cancer Research Institute, University of Texas Health Science Center, San Antonio, TX) provided Rh-18 rhabdomyosarcoma (RRID:CVCL_1659). Pooled donor human umbilical vein endothelial cells (HUVEC, Lonza, cat. CC-2519) and human mesenchymal stem cells (hMSC, Lonza, cat. PT-2501) were purchased from Lonza (Walkersville, MD).
Cell Culture. […]

[1] = second compound 0.00949 µM, first compound 0.00316 µM
[2] = second compound 0.00949 µM, first compound 0.01 µM
[3] = second compound 0.00949 µM, first compound 0.0316 µM
[4] = second compound 0.00949 µM, first compound 0.1 µM
[5] = second compound 0.00949 µM, first compound 0.316 µM
[6] = second compound 0.00949 µM, first compound 1 µM
[7] = second compound 0.03 µM, first compound 0.00316 µM
[8] = second compound 0.03 µM, first compound 0.01 µM
[9] = second compound 0.03 µM, first compound 0.0316 µM
[10] = second compound 0.03 µM, first compound 0.1 µM
[11] = second compound 0.03 µM, first compound 0.316 µM
[12] = second compound 0.03 µM, first compound 1 µM
[13] = second compound 0.0949 µM, first compound 0.00316 µM
[14] = second compound 0.0949 µM, first compound 0.01 µM
[15] = second compound 0.0949 µM, first compound 0.0316 µM
[16] = second compound 0.0949 µM, first compound 0.1 µM
[17] = second compound 0.0949 µM, first compound 0.316 µM
[18] = second compound 0.0949 µM, first compound 1 µM
[19] = second compound 0.3 µM, first compound 0.00316 µM
[20] = second compound 0.3 µM, first compound 0.01 µM
[21] = second compound 0.3 µM, first compound 0.0316 µM
[22] = second compound 0.3 µM, first compound 0.1 µM
[23] = second compound 0.3 µM, first compound 0.316 µM
[24] = second compound 0.3 µM, first compound 1 µM
[25] = second compound 0.949 µM, first compound 0.00316 µM
[26] = second compound 0.949 µM, first compound 0.01 µM
[27] = second compound 0.949 µM, first compound 0.0316 µM
[28] = second compound 0.949 µM, first compound 0.1 µM
[29] = second compound 0.949 µM, first compound 0.316 µM
[30] = second compound 0.949 µM, first compound 1 µM
[31] = second compound 3 µM, first compound 0.00316 µM
[32] = second compound 3 µM, first compound 0.01 µM
[33] = second compound 3 µM, first compound 0.0316 µM
[34] = second compound 3 µM, first compound 0.1 µM
[35] = second compound 3 µM, first compound 0.316 µM
[36] = second compound 3 µM, first compound 1 µM

CCN1CCN(Cc2ccc(Nc3ncc(F)c(-c4cc(F)c5nc(C)n(C(C)C)c5c4)n3)nc2)CC1 + CCN1C(C(=O)NC23CCC(C(=O)O)(CC2)CC3)C(c2cccc(Cl)c2F)C2(C(=O)Nc3cc(Cl)ccc32)C12CCCCC2
IC50 (second compound 0.00949 µM): > 1000 nM | IC50 (second compound 0.03 µM): > 1000 nM | IC50 (second compound 0.0949 µM): > 1000 nM | IC50 (second compound 0.3 µM): > 1000 nM | IC50 (second compound 0.949 µM): > 1000 nM | IC50 (second compound 3 µM): > 1000 nM | viability, T/C [1]: 103% | viability, T/C [2]: 100% | viability, T/C [3]: 106% | viability, T/C [4]: 115% | viability, T/C [5]: 115% | viability, T/C [6]: 129% | viability, T/C [7]: 102% | viability, T/C [8]: 102% | viability, T/C [9]: 96.1% | viability, T/C [10]: 113% | viability, T/C [11]: 123% | viability, T/C [12]: 133% | viability, T/C [13]: 105% | viability, T/C [14]: 95.9% | viability, T/C [15]: 117% | viability, T/C [16]: 109% | viability, T/C [17]: 116% | viability, T/C [18]: 127% | viability, T/C [19]: 103% | viability, T/C [20]: 105% | viability, T/C [21]: 102% | viability, T/C [22]: 113% | viability, T/C [23]: 123% | viability, T/C [24]: 129% | viability, T/C [25]: 110% | viability, T/C [26]: 114% | viability, T/C [27]: 106% | viability, T/C [28]: 114% | viability, T/C [29]: 131% | viability, T/C [30]: 122% | viability, T/C [31]: 113% | viability, T/C [32]: 99.2% | viability, T/C [33]: 109% | viability, T/C [34]: 108% | viability, T/C [35]: 116% | viability, T/C [36]: 111%

O=C(c1ccc(F)c(F)c1Nc1ccc(I)cc1F)N1CC(O)([C@@H]2CCCCN2)C1 + CCN1C(C(=O)NC23CCC(C(=O)O)(CC2)CC3)C(c2cccc(Cl)c2F)C2(C(=O)Nc3cc(Cl)ccc32)C12CCCCC2
IC50 (second compound 0.00949 µM): > 1000 nM | IC50 (second compound 0.03 µM): > 1000 nM | IC50 (second compound 0.0949 µM): > 1000 nM | IC50 (second compound 0.3 µM): > 1000 nM | IC50 (second compound 0.949 µM): > 1000 nM | IC50 (second compound 3 µM): > 1000 nM | viability, T/C [1]: 102% | viability, T/C [2]: 90.7% | viability, T/C [3]: 104% | viability, T/C [4]: 95.7% | viability, T/C [5]: 93.4% | viability, T/C [6]: 87.7% | viability, T/C [7]: 100% | viability, T/C [8]: 98.5% | viability, T/C [9]: 95.5% | viability, T/C [10]: 95.1% | viability, T/C [11]: 89.5% | viability, T/C [12]: 82.3% | viability, T/C [13]: 104% | viability, T/C [14]: 97.5% | viability, T/C [15]: 88% | viability, T/C [16]: 102% | viability, T/C [17]: 85.8% | viability, T/C [18]: 79.2% | viability, T/C [19]: 99.9% | viability, T/C [20]: 110% | viability, T/C [21]: 109% | viability, T/C [22]: 101% | viability, T/C [23]: 103% | viability, T/C [24]: 83.7% | viability, T/C [25]: 110% | viability, T/C [26]: 114% | viability, T/C [27]: 112% | viability, T/C [28]: 109% | viability, T/C [29]: 108% | viability, T/C [30]: 77.4% | viability, T/C [31]: 103% | viability, T/C [32]: 98.3% | viability, T/C [33]: 101% | viability, T/C [34]: 99.1% | viability, T/C [35]: 91.3% | viability, T/C [36]: 77.4%
